{"source": "patent US11540981B2", "about": "“Nanoemulsion formulation with improved stability and cell penetration” (BIOFRONTERA BIOSCIENCE GMBH, priority 2006, dated 2023)", "key": {"[1]": {"conditions": "high concentrations required for clinical application, neutral to basic pH range; cited from earlier work"}, "[2]": {"assay": "Phase II clinical study: pharmacokinetic assessment of systemic plasma and urine levels", "conditions": "ALA-treated patients, compared with naturally occurring physiological values in the same individuals"}, "[3]": {"conditions": "25° C.; cited from earlier work"}}}
{"molecule": "NCC(=O)CCC(=O)O", "note": "[ALA, 5-aminolevulinic acid]", "values": [{"measurement": "stability in aqueous solutions", "setting": "[1]", "value": "unstable"}, {"measurement": "plasma concentrations of ALA and its metabolite protoporphyrin IX", "setting": "[2]", "value": "not increased"}, {"measurement": "urine concentrations of ALA and its metabolite protoporphyrin IX", "setting": "[2]", "value": "not increased"}]}
{"molecule": "CC(C)O", "note": "[isopropanol]", "values": [{"measurement": "viscosity", "setting": "[3]", "value": 2.32, "unit": "cp"}]}
{"molecule": "CCO", "note": "[ethanol]", "values": [{"measurement": "viscosity", "setting": "[3]", "value": 1.10, "unit": "cp"}]}
